Data on eight compounds can be found in publication PMC3362575, “Synthesis and Biological Evaluation of Phenanthrenes as Cytotoxic Agents with Pharmacophore Modeling and ChemGPS-NP Prediction as Topo II Inhibitors” (PLoS ONE, 2012).

Assay type in all cases: cell-based, human
The test system of one experiment is HepG2. Briefly: MTT cytotoxicity assay, HepG2. As to conditions: for IC50: Homo sapiens, HepG2, Table 1, natural phenanthrenes. The method, then: (§1) The cytotoxic assay of 11 naturally occurring and 19 synthesized phenanthrenes was carried out on a diverse set of human liver (HepG2 and Hep3B), oral (Ca9-22), lung (A549) and breast (MEA-MB-231 and MCF7) cancer cell lines, and a human fetal lung fibroblast (MRC-5) cell line (Tables 1 and 2).
(§2) Compounds were tested against human liver (HepG2 and Hep3B), oral (Ca9-22), lung (A549), breast (MEA-MB-231 and MCF7) cancer cell lines, and the human fetal lung fibroblast (MRC-5) cell line using an established colorimetric MTT assay protocol. The absorbance was measured at 550 nm using a microplate reader. The IC50 is the concentration of agent that reduced cell growth by 50% under the experimental conditions.
Background: Formazan colour is commonly taken as a measure of viable cells.

For the next experiment, the system named is Hep3B. Briefly: MTT cytotoxicity assay, Hep3B. As to conditions: for IC50: Homo sapiens, Hep3B, Table 1, natural phenanthrenes. The method, then:
as §1, §2

In the next experiment the test system is Ca9-22. Briefly: MTT cytotoxicity assay, Ca9-22. As to conditions: for IC50: Homo sapiens, Ca9-22, Table 1, natural phenanthrenes. The method, then: as §1, §2
For another experiment, the system named is A549. Briefly: MTT cytotoxicity assay, A549. The following applies: for IC50: Homo sapiens, A549, Table 1, natural phenanthrenes. The procedure:
as §1, §2

A further experiment has as its system MCF-7. Briefly: MTT cytotoxicity assay, MCF-7. The following applies: for IC50 / MCF-7 activity class (from IC50): Homo sapiens; for IC50: MCF7, Table 1, natural phenanthrenes; for MCF-7 activity class (from IC50): MCF7, Table S3, read-out: Scale Exptl. (MCF-7 activity class). The method, then: as §1, §2
The pharmacophore modeling with Catalyst HypoGen was performed via Discovery Studio 2.1 (Accelrys, San Diego, CA, USA). Twenty-nine phenanthrene derivatives were collected from the natural plant, C. arisanensis, and from chemical synthesis (Figure 2). Cytotoxicity against MCF-7 cells was determined by the MTT assay and the concentration (µg/mL) of test compound which inhibited 50% of the cancer cells (IC50) was used in the generation of the pharmacophore model. An IC50 value of >20 µg/mL was defined as 20 µg/mL. All experimental IC50 values spanned about 2–3 orders of magnitude from 0.09 to 20 µg/mL. The 2D/3D structures of compounds were generated using ChemBioOffice 2008 (Cambridge Scientic Computing, Cambridge, Massachusetts, USA) and then optimized in a Dreiding force field. The conformational ensemble of each compound was generated using the best conformational analysis method based on a CHARMM force field with a 20 kcal/mol energy threshold above the global minimum. A maximum limit of 255 conformations was used to cover maximum conformational space. The best 3D arrangements of chemical functionalities should explain the activity variations among the 29 compounds. Thirty runs with different parameters were performed for the best pharmacophore hypothesis. Four chemical features, including hydrogen-bond acceptor (HBA), hydrogen-bond donor (HBD), hydrophobic (HYD), and aromatic ring (AR) features, were also tested during the building of pharmacophore hypotheses (Table S1; Text S1). The best hypotheses were selected via a correlation and a cost analysis in Catalyst HypoGen.

The subject of a further experiment is MDA-MB-231. Briefly: MTT cytotoxicity assay, MDA-MB-231. The following applies: for IC50: Homo sapiens, MDA-MB-231, Table 1, natural phenanthrenes. The procedure:
as §1, §2

A further experiment has as its system MRC-5. The experiment can be described thus: MTT cytotoxicity assay, MRC-5 fetal lung fibroblast. As to conditions: normal fetal lung fibroblast; for IC50: Homo sapiens, MRC5, Table 1, natural phenanthrenes. The method, then:
as §1, §2

[1] abbreviates: Table 2, synthesized phenanthrenes.

Broadly, the IC50 is the midpoint of a concentration-inhibition curve.

In brackets after ≈: the same amount, converted by molar mass.

Turning to “5,6,7,5′,6′,7′-hexamethoxy-[8,8′]bi-1,4-phenanthrenequinone [Compound 4c]”, the “IC50 HepG2” value in the experiment with HepG2 (setting [1]) came to 6.87 ± 0.10 µg/mL. Further, in the experiment on Hep3B (setting [1]), the “IC50 Hep3B” value was determined as 4.37 ± 0.00 µg/mL. The “IC50 Ca9-22” value with Ca9-22 (setting [1]) stood at 1.90 ± 0.01 µg/mL. The “IC50 A549” value with A549 (setting [1]) was determined as 12.65 ± 0.48 µg/mL. In the experiment on MCF-7 (Table 2, synthesized phenanthrenes, MTT), the “IC50 MCF-7” value is 4.71 ± 0.26 µg/mL. Also, the “Scale Exptl. (MCF-7 activity class)” value in the experiment with MCF-7 (Table S3) is “++ (moderately active (1.0 μg/mL < IC50 < 20.0 μg/mL, ++))”. The “IC50 MDA-MB-231” value in the experiment on MDA-MB-231 (setting [1]) stood at 4.09 ± 0.12 µg/mL. Also, in the experiment with MRC-5 (setting [1]), the “IC50 MRC-5” value is 5.37 ± 0.25 µg/mL.

As to `COC1=CC(=O)c2ccc3cc(OC)c(O)c(OC)c3c2C1=O` [CA-2, calanquinone B], the IC50 with HepG2 was 14.5 ± 0.43 µg/mL (≈ 46 µM); with Hep3B, 11.9 ± 0.55 µg/mL (≈ 38 µM); in the experiment with Ca9-22, 14.64 ± 0.11 µg/mL (≈ 46.6 µM); in the experiment on A549, 18.5 ± 0.29 µg/mL (≈ 58.9 µM); with MCF-7 (MTT) it was 11.9 ± 0.08 µg/mL (≈ 37.9 µM); in the experiment with MDA-MB-231 it was over 20 µg/mL. The same compound came in with an IC50 in the experiment with MRC-5 of over 20 µg/mL. Further, the MCF-7 activity class (from IC50) with MCF-7 lay in the range of 1 to 20 µg/mL.

Consider `COc1cc2c(c(OC)c1O)C1=C(CC2)C(=O)C=CC1=O` [CA-3], for which the IC50 in the experiment on HepG2 was 19.76 ± 0.16 µg/mL (≈ 69 µM); in the experiment on Hep3B, 6.02 ± 0.12 µg/mL (≈ 21 µM); with Ca9-22 it was 12.6 ± 0.76 µg/mL (≈ 43.8 µM); in the experiment with A549 it was over 20 µg/mL; in the experiment with MCF-7 (MTT), 13.2 µg/mL (≈ 46.3 µM); with MDA-MB-231, 11.9 ± 0.02 µg/mL (≈ 41.6 µM). The same compound came in with an IC50 in the experiment with MRC-5 of over 20 µg/mL. Besides, the MCF-7 activity class (from IC50) in the experiment on MCF-7 lay in the range of 1 to 20 µg/mL.

In the case of `COc1cc2c(c(OC)c1O)-c1c(O)ccc(O)c1CC2` [CA-4], the IC50 with HepG2 is over 20 µg/mL; in the experiment on Hep3B, 11.1 ± 0.73 µg/mL (≈ 38.3 µM); in the experiment with Ca9-22, 15.12 ± 0.14 µg/mL (≈ 52.4 µM); in the experiment with A549 it was over 20 µg/mL; with MCF-7 (MTT), 14.3 ± 0.18 µg/mL (≈ 49.6 µM); in the experiment on MDA-MB-231 it was 19.8 ± 0.45 µg/mL (≈ 68.8 µM). This compound also yielded an IC50 in the experiment on MRC-5 of over 20 µg/mL. Also, the MCF-7 activity class (from IC50) in the experiment with MCF-7 lay within 1 to 20 µg/mL.

Turning to `COc1c(O)cc2c(c1OC)-c1c(O)ccc(O)c1CC2` [CA-5], the IC50 in the experiment on HepG2 was 17.8 ± 0.4 µg/mL (≈ 61.7 µM); with Hep3B, 9.87 ± 0.09 µg/mL (≈ 34.2 µM); in the experiment with Ca9-22, 12.17 ± 0.03 µg/mL (≈ 42.2 µM); in the experiment on A549, over 20 µg/mL; in the experiment on MCF-7 (MTT), 12.7 ± 0.07 µg/mL (≈ 44.1 µM); with MDA-MB-231 it was 11.7 ± 0.13 µg/mL (≈ 40.4 µM). The compound also displayed an IC50 in the experiment with MRC-5 of over 20 µg/mL. Also, the MCF-7 activity class (from IC50) in the experiment with MCF-7 lay within 1 to 20 µg/mL.

Consider `COc1cc2c(c(OC)c1OC)-c1c(O)ccc(O)c1CC2` [CA-6], for which the IC50 with HepG2 was over 20 µg/mL; in the experiment on Hep3B, 11.5 ± 0.76 µg/mL (≈ 38 µM); in the experiment with Ca9-22, 14.6 ± 0.31 µg/mL (≈ 48.2 µM); in the experiment on A549 it was over 20 µg/mL; with MCF-7 (MTT), over 20 µg/mL; in the experiment on MDA-MB-231, over 20 µg/mL. In the experiment with MRC-5, the IC50 was over 20 µg/mL. Further, the MCF-7 activity class (from IC50) in the experiment with MCF-7 was over 20 µg/mL.

For `COc1cc(O)c2c(c1)CCc1ccc(O)c(OC)c1-2` [CA-7], the IC50 with HepG2 is over 20 µg/mL; in the experiment on Hep3B, over 20 µg/mL; in the experiment on Ca9-22, over 20 µg/mL; in the experiment with A549 it was over 20 µg/mL; with MCF-7 (MTT), 14.6 ± 0.34 µg/mL (≈ 53.7 µM); in the experiment on MDA-MB-231, over 20 µg/mL. Besides, the IC50 in the experiment with MRC-5 was over 20 µg/mL. The MCF-7 activity class (from IC50) in the experiment on MCF-7 lay within 1 to 20 µg/mL.

Turning to `COc1cc2ccc3cccc(O)c3c2c(OC)c1O` [CA-8], the IC50 in the experiment with HepG2, in the experiment with Hep3B, in the experiment on Ca9-22, in the experiment with A549, in the experiment with MCF-7 (MTT) and in the experiment on MDA-MB-231 was over 20 µg/mL in each case. The same compound had an IC50 with MRC-5 of over 20 µg/mL. For the same compound, the MCF-7 activity class (from IC50) in the experiment on MCF-7 is over 20 µg/mL.
